{"source": "paper PMC11876601", "about": "(Molecular Systems Biology, 2025)", "tested_on": "p-sites in DNA-damaged AsPC-1 cells", "test": "decryptM dose-resolved phosphoproteomics of ATRi in GEM-pre-treated cells", "assay_type": "cell-based, human", "details": "for EC50: Homo sapiens, ASPC1; for PTM response (norm. to 1 µM GEM): source data 4B (p-site not named)", "description": "Cell culture medium was replaced 24 h after seeding. […] For time point 0, AsPC-1 cells were treated with a vehicle and lysed immediately. The final DMSO concentration in all experiments was 0.2%.\nBriefly, cells were washed twice with PBS and lysed in SDS lysis buffer (2% SDS in 40 mM Tris-HCl, pH 7.6), followed by sonication for 10 min (30 s on/30 s off) using a Bioruptor (Diagenode). For DNA hydrolysis, samples were boiled at 95 °C for 10 min and incubated with 2% trifluoroacetic acid (TFA) for 1 min, before the reaction was quenched using 4% N-methylmorpholine. Lysate was cleared by centrifugation at 11,000 × g for 5 min and protein concentration was determined using the Pierce BCA Protein Assay Kit (Thermo Scientific).\nUsing 70% ethanol, samples were then precipitated on beads, followed by washing thrice with 80% ethanol and once with 100% acetonitrile. Subsequently, proteins were reduced and alkylated using 10 mM TCEP, 50 mM chloroacetamide, and 2 mM CaCl2 in 100 mM EPPS/NaOH, pH 8.5 for 1 h at 37 °C, followed by tryptic digestion at 37 °C for 16 h. Peptides were acidified with 1% TFA and desalted on Chromabond HLB plates (30 µm particle size, 10 mg capacity, Machery-Nagel), using 0.1% TFA for equilibration and sample loading, and 0.1% TFA in 70% acetonitrile for peptide elution. Recovered peptides were freeze-dried by vacuum-centrifugation and stored at −20 °C.\nDepending on the experiment, samples were either labeled with TMT-11plex (decryptM), TMT-10plex (non-decryptM, quadruplicates), or TMTpro reagent (time-series; all Thermo Scientific). Therefore, dried peptides were reconstituted in 15 µl 100 mM EPPS, pH 8.5 and each treatment condition was labeled with one channel of the respective TMT reagent (5 µl of 25 µg/µl reagent, Appendix Tables S4–S6). The reaction was incubated for 1 h at 23 °C and subsequently quenched with 0.4% hydroxylamine. Then, samples were pooled, acidified with 1% formic acid, and freeze-dried by vacuum-centrifugation. Labeled peptide pools were desalted on C18 Sep-Pak cartridges (37–55 µm particle size, 50 mg capacity, Waters), using 0.1% formic acid as equilibration solvent, and 0.1% formic acid in 60% acetonitrile was used as elution solvent. Eluted peptides were freeze-dried and stored at −20 °C until further use.\nBasic reversed-phase (bRP) fractionation of peptides was performed on a Vanquish HPLC (Thermo Scientific). In short, dried peptides were reconstituted in 200 µl 25 mM ammonium bicarbonate, pH 8.0 and directly injected onto a Waters BEH130 XBridge C18 column (3.5 µm, 4.6 × 250 mm). […] Using an automated fraction collector, 96 fractions were collected between min 7 and 55 after injection. Fractions were acidified with 1% formic acid and pooled to 48 fractions, before they were freeze-dried and stored at −20 °C.\nImmobilized metal ion affinity chromatography (IMAC) enrichment of phosphorylated peptides was performed on the Bravo automated liquid handling platform using AssayMAP Fe(III)-NTA cartridges (Agilent). In brief, the 48 dried peptide fractions were reconstituted in 0.1% TFA in 80% acetonitrile and further pooled to 12 fractions (200 µl final volume per well). The phosphopeptide enrichment protocol embedded in the Agilent AssayMAP Bravo Protein Sample Prep Workbench v2.0 software was run. Thereby, the cartridges were first primed with 150 μl 0.1% TFA in acetonitrile at 300 μl/min, and equilibrated with 150 μl 0.1% TFA in 80% acetonitrile at 10 μl/min. Then, pooled fractions were loaded at 5 µl/min and further washed three times with 150 μl 0.1% TFA in 80% acetonitrile at 50 μl/min. Enriched peptides were eluted with 60 μl 1% ammonium hydroxide at 5 μl/min.", "note": "Like-named read-outs stand apart in the source and are kept apart here.", "data": [{"compound": "Nc1nn2cc(F)cnc2c1C(=O)Nc1cncc(F)c1N1CCC(C(=O)N2CCN(C3COC3)CC2)CC1", "note": "[Gartisertib]", "values": [{"measurement": "Ratio TMT 9 (PTM response normalized to 1,000 nM GEM), AAAS S495", "setting": "1,000 nM GEM + 1 nM ATRi", "result": 1.01}, {"measurement": "Ratio TMT 8 (PTM response normalized to 1,000 nM GEM), AAAS S495", "setting": "1,000 nM GEM + 3 nM ATRi", "result": 1.19}, {"measurement": "Ratio TMT 7 (PTM response normalized to 1,000 nM GEM), AAAS S495", "setting": "1,000 nM GEM + 10 nM ATRi", "result": 1.10}, {"measurement": "Ratio TMT 6 (PTM response normalized to 1,000 nM GEM), AAAS S495", "setting": "1,000 nM GEM + 30 nM ATRi", "result": 1.01}, {"measurement": "Ratio TMT 5 (PTM response normalized to 1,000 nM GEM), AAAS S495", "setting": "1,000 nM GEM + 100 nM ATRi", "result": 0.97}, {"measurement": "Ratio TMT 4 (PTM response normalized to 1,000 nM GEM), AAAS S495", "setting": "1,000 nM GEM + 300 nM ATRi", "result": 1.12}, {"measurement": "Ratio TMT 3 (PTM response normalized to 1,000 nM GEM), AAAS S495", "setting": "1,000 nM GEM + 1,000 nM ATRi", "result": 1.11}, {"measurement": "Ratio TMT 2 (PTM response normalized to 1,000 nM GEM), AAAS S495", "setting": "1,000 nM GEM + 3,000 nM ATRi", "result": 1.00}, {"measurement": "Ratio TMT 1 (PTM response normalized to 1,000 nM GEM), AAAS S495", "setting": "1,000 nM GEM + 10,000 nM ATRi", "result": 1.09}, {"measurement": "Log2 PTM response (GEM+ATRi vs. GEM)", "setting": "AASDHPPT-pS258", "result": -1.6}, {"measurement": "Log2 PTM response (GEM+ATRi vs. GEM)", "setting": "BRCA1-pS1239", "result": -2}, {"measurement": "Log2 PTM response (GEM+ATRi vs. GEM)", "setting": "BRD8-pS621", "result": -1.6}, {"measurement": "Log2 PTM response (GEM+ATRi vs. GEM)", "setting": "CDKN2AIP-pS198", "result": -1.3}, {"measurement": "Log2 PTM response (GEM+ATRi vs. GEM)", "setting": "CHEK1-pS317", "result": -2.3}, {"measurement": "Log2 PTM response (GEM+ATRi vs. GEM)", "setting": "EXO1-pS714", "result": -1.9}, {"measurement": "Log2 PTM response (GEM+ATRi vs. GEM)", "setting": "FANCD2-pS319", "result": -1}, {"measurement": "Log2 PTM response (GEM+ATRi vs. GEM)", "setting": "HDGF-pS103", "result": -1.6}, {"measurement": "Log2 PTM response (GEM+ATRi vs. GEM)", "setting": "HMGA1-pS9", "result": -2}, {"measurement": "Log2 PTM response (GEM+ATRi vs. GEM)", "setting": "HMGA1-pS36;S44", "result": -0.9}, {"measurement": "Log2 PTM response (GEM+ATRi vs. GEM)", "setting": "HMGA1-pS44", "result": -2.1}, {"measurement": "Log2 PTM response (GEM+ATRi vs. GEM)", "setting": "HTATSF1-pS481", "result": -1.1}, {"measurement": "EC50", "setting": "approximate, from density plot Fig. 4C (peer review file), read-out: EC50 of the majority of pSQ/pTQ sites", "result": "~0.01", "unit": "µM"}, {"measurement": "EC50", "setting": "approximate, from density plot Fig. 4C (peer review file), read-out: pEC50 of the majority of pSQ/pTQ sites (converted)", "result": "~0.01", "unit": "µM"}, {"measurement": "EC50", "setting": "p-site dose-response in GEM-pre-treated cells, read-out: EC50, RALY S176", "result": 0.00191, "unit": "µM"}, {"measurement": "EC50", "setting": "p-site dose-response in GEM-pre-treated cells, read-out: pEC50, RALY S176 (converted)", "result": 0.00191, "unit": "µM"}, {"measurement": "EC50", "setting": "read-out: median EC50 across all drug-regulated pSQ/pTQ-sites", "result": 0.021, "unit": "µM"}, {"measurement": "Log2 PTM response (GEM+ATRi vs. GEM)", "setting": "LRRC42-pS385", "result": -2.5}, {"measurement": "Log2 PTM response (GEM+ATRi vs. GEM)", "setting": "NBN-pS397", "result": -1.3}, {"measurement": "Log2 PTM response (GEM+ATRi vs. GEM)", "setting": "NBN-pS615", "result": -0.8}, {"measurement": "Log2 PTM response (GEM+ATRi vs. GEM)", "setting": "NSUN5-pS432", "result": -2.2}, {"measurement": "Log2 PTM response (GEM+ATRi vs. GEM)", "setting": "PELP1-pS1033", "result": -1}, {"measurement": "Log2 PTM response (GEM+ATRi vs. GEM)", "setting": "PHF14-pS294", "result": -1.2}, {"measurement": "Log2 PTM response (GEM+ATRi vs. GEM)", "setting": "PNISR-pS706", "result": -1.9}, {"measurement": "Log2 PTM response (GEM+ATRi vs. GEM)", "setting": "PPM1G-pS201", "result": -2.3}, {"measurement": "Log2 PTM response (GEM+ATRi vs. GEM)", "setting": "PPP6R3-pS825", "result": -1}, {"measurement": "Log2 PTM response (GEM+ATRi vs. GEM)", "setting": "PSMD4-pS266", "result": -1.2}, {"measurement": "Log2 PTM response (GEM+ATRi vs. GEM)", "setting": "RAD18-pS368", "result": -2.8}, {"measurement": "Log2 PTM response (GEM+ATRi vs. GEM)", "setting": "RIF1-pS1873", "result": -1.4}, {"measurement": "Log2 PTM response (GEM+ATRi vs. GEM)", "setting": "SNRPA-pS115", "result": -1}, {"measurement": "Log2 PTM response (GEM+ATRi vs. GEM)", "setting": "TCEA1-pS100;S97", "result": -2.6}, {"measurement": "Log2 PTM response (GEM+ATRi vs. GEM)", "setting": "TCEB3-pS251", "result": -1.6}, {"measurement": "Log2 PTM response (GEM+ATRi vs. GEM)", "setting": "THAP4-pS186", "result": -1.3}, {"measurement": "Log2 PTM response (GEM+ATRi vs. GEM)", "setting": "TOPBP1-pS1504", "result": -1.4}, {"measurement": "Log2 PTM response (GEM+ATRi vs. GEM)", "setting": "TSEN34-pS136", "result": -1.3}, {"measurement": "Log2 PTM response (GEM+ATRi vs. GEM)", "setting": "UHRF1-pS393", "result": -0.6}, {"measurement": "Log2 PTM response (GEM+ATRi vs. GEM)", "setting": "UIMC1-pS171", "result": -1}, {"measurement": "ATRi Regulation (Curve), RALY S176", "setting": "classified by CurveCurator", "result": "down"}, {"measurement": "Curve Log2 Fold Change, RALY S176", "setting": "fitted dose-response curve", "result": -1.45, "unit": "log2"}, {"measurement": "PTM response (norm. to 1 µM GEM)", "setting": "1 µM GEM + ATRi 1 nM", "result": 1.13}, {"measurement": "PTM response (norm. to 1 µM GEM)", "setting": "1 µM GEM + ATRi 3 nM", "result": 0.97}, {"measurement": "PTM response (norm. to 1 µM GEM)", "setting": "1 µM GEM + ATRi 10 nM", "result": 0.75}, {"measurement": "PTM response (norm. to 1 µM GEM)", "setting": "1 µM GEM + ATRi 30 nM", "result": 0.41}, {"measurement": "PTM response (norm. to 1 µM GEM)", "setting": "1 µM GEM + ATRi 100 nM", "result": 0.29}, {"measurement": "PTM response (norm. to 1 µM GEM)", "setting": "1 µM GEM + ATRi 300 nM", "result": 0.28}, {"measurement": "PTM response (norm. to 1 µM GEM)", "setting": "1 µM GEM + ATRi 1000 nM", "result": 0.21}, {"measurement": "PTM response (norm. to 1 µM GEM)", "setting": "1 µM GEM + ATRi 3000 nM", "result": 0.17}, {"measurement": "PTM response (norm. to 1 µM GEM)", "setting": "1 µM GEM + ATRi 10000 nM", "result": 0.19}]}]}
